Numbered stars: 1 amine (or outer) side, 2 acyl side, 3 side chain; on linkers, the order of the positions; unused ones are H or OH. Bridge positions count the residues as written; N and C are the ends. Square brackets hold non-standard residues; d marks the D form. Peptide text beside a SMILES is read from it. * marks the point of attachment. NH(4-amidinobenzyl) = N=C(N)c1ccc(CN*)cc1; 2Nal = N[C@@H](Cc1ccc2ccccc2c1)C(=O)O; Glutaryl = O=C(CCCC(=O)[*:2])[*:1]; Suc = O=C(CCC(=O)[*:2])[*:1]; X3 = NC(N)=NC/C=C/CN*
Tests used:
Furin [1] = molecular target: T1, Furin (Homo sapiens, UniProt P09958); test: Inhibition of furin in human U2OS cells measured after 24 hrs by fluorescence assay; assay type: cell-based
Mus musculus [2] = test: Antifibrotic activity against bleomycin-induced mouse lung fibrosis model assessed as inhibition of TGF-beta secretion in lung at 10 mg/kg, po administered once daily; assay type: functional
Mus musculus [3] = test: Antifibrotic activity against bleomycin-induced mouse lung fibrosis model assessed as inhibition of hydroxyproline content in lung at 10 mg/kg, po administered once daily; assay type: functional
[4] = Cytotoxicity against chinese hamster CHO-DG44 cells assessed as cell viability at 100 uM and measured after 2 hrs by WST-1 method; assay type: toxicity, cell-based, Cricetulus griseus; details: read-out: Activity
[5] = Cytotoxicity against human HT-1080 cells assessed as cell viability at 100 uM and measured after 2 hrs by WST-1 method; assay type: toxicity, cell-based; details: read-out: Activity
[6] = Protective activity against Pseudomonas aeruginosa exotoxin A-induced cytotoxicity in chinese hamster CHO-DG44 cells measured by WST-1 method; assay type: functional, Cricetulus griseus; details: dose 100 µM
RAW264.7 = test: Protective activity against Anthrax toxin-induced cytotoxicity in mouse RAW264.7 cells measured by WST-1 method; assay type: functional; details: dose 100 µM
Furin [7] = molecular target: T1, Furin; test: Inhibition of furin (unknown origin)
[8] = Stability in mouse plasma assessed as half-life; assay type: ADME, cell-free
Furin [9] = molecular target: T1, Furin; test: Inhibition of Recombinant vaccinia-expressed furin (unknown origin) using Pyr-RTKR-MCA as substrate and measured by fluorescence based assay
[10] = Inhibition of migration of human HT-1080 cells at 100 uM measured by calcein AM/ethidium homodimer (EthD-1) staining method; assay type: functional
Furin [11] = molecular target: T1, Furin; test: Inhibition of furin (unknown origin) using Pyr-RTKR-MCA as substrate incubated for 30 mins and measured by FRET assay

T1 sequence (P09958 whole entry): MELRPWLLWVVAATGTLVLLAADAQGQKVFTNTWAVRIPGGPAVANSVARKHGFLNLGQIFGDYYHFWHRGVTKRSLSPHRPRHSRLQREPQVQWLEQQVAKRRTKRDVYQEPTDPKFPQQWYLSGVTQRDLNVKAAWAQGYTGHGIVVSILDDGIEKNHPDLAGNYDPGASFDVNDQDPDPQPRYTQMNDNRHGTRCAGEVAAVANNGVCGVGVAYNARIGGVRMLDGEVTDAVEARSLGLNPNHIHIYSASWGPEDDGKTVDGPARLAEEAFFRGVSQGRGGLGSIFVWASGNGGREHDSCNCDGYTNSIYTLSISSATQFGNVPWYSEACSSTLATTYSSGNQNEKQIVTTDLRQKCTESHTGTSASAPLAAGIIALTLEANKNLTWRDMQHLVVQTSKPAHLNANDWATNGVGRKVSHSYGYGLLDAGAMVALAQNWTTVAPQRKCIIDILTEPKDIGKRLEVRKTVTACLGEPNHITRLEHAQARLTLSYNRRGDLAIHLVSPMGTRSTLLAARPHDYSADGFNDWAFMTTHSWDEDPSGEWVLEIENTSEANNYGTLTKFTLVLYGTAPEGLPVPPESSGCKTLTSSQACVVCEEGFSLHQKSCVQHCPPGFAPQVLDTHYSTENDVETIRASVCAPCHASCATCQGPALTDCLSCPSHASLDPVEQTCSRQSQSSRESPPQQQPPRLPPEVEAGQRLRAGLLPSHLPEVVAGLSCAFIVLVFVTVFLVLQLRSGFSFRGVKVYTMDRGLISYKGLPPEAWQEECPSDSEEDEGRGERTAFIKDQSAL

Q: With `CS(=O)(=O)CCCN1CCN(c2ncc(Oc3cc(CN4CCC(CC(=O)O)CC4)cc(-c4cc(Cl)cc(Cl)c4)n3)cn2)CC1` as the compound, how does the pXC50 (Furin [1]) read?
A: Its pXC50 is 7.6.

Q: What about the inhibition in vivo at 10 mg/kg (Mus musculus [2]) of the same compound?
A: The inhibition in vivo at 10 mg/kg was 40%.

Q: What about the inhibition in vivo at 10 mg/kg (Mus musculus [3]) of the same compound?
A: Its inhibition in vivo at 10 mg/kg is -1%.

Q: For `N=C(N)Nc1ccc(O[C@H]2C[C@@H](Oc3ccc(NC(=N)N)c4ccccc34)[C@H](NC(=N)N)C[C@@H]2NC(=N)N)cc1`, which viability at 2 h, 100 µM [4] is on record?
A: Its viability at 2 h, 100 µM is greater than 50%.

Q: And the viability at 2 h, 100 µM [5]?
A: Its viability at 2 h, 100 µM is greater than 50%.

Q: What about the Activity [6] of the same compound?
A: Its Activity is 60%.

Q: And the Activity (RAW264.7)?
A: Its Activity is 90%.

Q: Which results are given for `CC(=O)N[C@@H](CCCN=C(N)N)C(=O)N[C@@H](C)C(=O)N[C@@H](CCCN=C(N)N)C(=O)N[C@@H](CCCN=C(N)N)C(=O)N[C@@H](CCCN=C(N)N)C(=O)N[C@@H](CCCCN)C(=O)N[C@@H](CCCCN)C(=O)NC/C=C/CN=C(N)N` (Ac-RARRRKK-X3)?
A: Ki (Furin [7]): 7 nM; half-life [8]: 198 min

Q: With `N=C(N)Nc1ccc(O[C@H]2C[C@@H](Oc3ccc(NC(=N)N)cc3NC(=N)N)[C@H](NC(=N)N)C[C@@H]2NC(=N)N)cc1` as the compound, how does the Ki (Furin [9]) read?
A: Its Ki is 89 nM.

Q: And the viability at 2 h, 100 µM [4]?
A: Its viability at 2 h, 100 µM is greater than 90%.

Q: And the viability at 2 h, 100 µM [5]?
A: The viability at 2 h, 100 µM was greater than 90%.

Q: What about the inhibition at 100 µM [10] of the same compound?
A: Its inhibition at 100 µM is 30%.

Q: And the Activity [6]?
A: Its Activity is greater than 30%.

Q: What about the Activity (RAW264.7) of the same compound?
A: Its Activity is greater than 80%.

Q: With `Cc1cc(O[C@H]2C[C@@H](Oc3ccc(C(=N)N)c(C)c3)[C@H](NC(=N)N)C[C@@H]2NC(=N)N)ccc1C(=N)N` as the compound, how does the Ki (Furin [11]) read?
A: Its Ki is 10 nM.

Q: Which Ki (Furin [7]) does the source give for `CC(C)[C@H](NC(=O)[C@H](CCCNC(=N)N)NC(=O)[C@@H](N)CCCNC(=N)N)C(=O)N[C@@H](CCCNC(=N)N)C(=O)NCc1ccc(C(=N)N)cc1` (H-RRVR-{NH(4-amidinobenzyl)}) here?
A: Its Ki is 0.11 nM.

Q: Which viability at 2 h, 100 µM [4] does the source give for `N=C(N)Nc1ccc(O[C@H]2C[C@@H](Oc3ccc(NC(=N)N)cc3NC(=N)N)[C@H](NC(=N)N)C[C@@H]2NC(=N)N)c(NC(=N)N)c1` here?
A: Its viability at 2 h, 100 µM is greater than 90%.

Q: And the viability at 2 h, 100 µM [5]?
A: The viability at 2 h, 100 µM was greater than 90%.

Q: And the inhibition at 100 µM [10]?
A: The inhibition at 100 µM was 60%.

Q: What about the Activity [6] of the same compound?
A: The Activity was greater than 70%.

Q: And the Activity (RAW264.7)?
A: The Activity was greater than 80%.

Q: Which pXC50 (Furin [1]) does the source give for `O=C(O)CC1CCN(Cc2cc(Oc3cnc(N4CCN(CCO)CC4)nc3)nc(-c3cc(Cl)cc(Cl)c3)c2)CC1` here?
A: Its pXC50 is 7.6.

Q: What about the inhibition in vivo at 10 mg/kg (Mus musculus [2]) of the same compound?
A: Its inhibition in vivo at 10 mg/kg is 31%.

Q: What about the inhibition in vivo at 10 mg/kg (Mus musculus [3]) of the same compound?
A: Its inhibition in vivo at 10 mg/kg is 11%.

Q: With `N=C(N)N[C@H]1C[C@@H](NC(=N)N)[C@H](Oc2ccc(C(=N)N)c3ccccc23)C[C@@H]1Oc1ccc(C(=N)N)c2ccccc12` as the compound, how does the Ki (Furin [11]) read?
A: The Ki was 50 nM.

Q: Which Ki (Furin [7]) does the source give for `CC(C)(C)[C@H](NC(=O)[C@H](CCCNC(=N)N)NC(=O)Cc1ccc(CNC(=N)N)cc1)C(=O)N[C@@H](CCCN)C(=O)NCc1ccc(C(=N)N)cc1` here?
A: The Ki was 0.0088 nM.

Q: With `N=C(N)NCCC[C@H](NC(=O)[C@@H]1CCCCNC(=O)CCC(=O)N[C@@H](Cc2ccccc2)C(=O)N[C@@H](Cc2ccc3ccccc3c2)C(=O)N[C@@H](CCCNC(=N)N)C(=O)N[C@@H](CCCNC(=N)N)C(=O)N[C@@H](CCCNC(=N)N)C(=O)N[C@@H](CCCNC(=N)N)C(=O)N1)C(=O)NCc1ccc(C(=N)N)cc1` (F[2Nal]RRRRKR-{NH(4-amidinobenzyl)}; linker N-7 via Suc) as the compound, how does the Ki (Furin [7]) read?
A: Its Ki is 0.0538 nM.

Q: Which viability at 2 h, 100 µM [4] does the source give for `N=C(N)Nc1ccc(O[C@H]2C[C@@H](Oc3ccc(NC(=N)N)c4ccccc34)[C@H](NC(=N)N)C[C@@H]2NC(=N)N)c(NC(=N)N)c1` here?
A: The viability at 2 h, 100 µM was greater than 80%.

Q: What about the viability at 2 h, 100 µM [5] of the same compound?
A: The viability at 2 h, 100 µM was greater than 80%.

Q: What about the inhibition at 100 µM [10] of the same compound?
A: Its inhibition at 100 µM is greater than 60%.

Q: And the Activity (RAW264.7)?
A: The Activity was 50%.

Q: Which Ki (Furin [7]) does the source give for `CC(C)(C)[C@@H]1NC(=O)[C@H](CCCNC(=N)N)NC(=O)[C@H](CCCNC(=N)N)NC(=O)[C@@H](N)CCCCNC(=O)Cc2ccc(cc2)CNC(=O)CCCC(=O)NCCCC[C@@H](C(=O)NCc2ccc(C(=N)N)cc2)NC1=O` here?
A: The Ki was 1.17 nM.

Q: With `O=C(O)CC1CCN(Cc2cc(Oc3cnc(N4CCNCC4)nc3)nc(-c3cc(Cl)cc(Cl)c3)c2)CC1` as the compound, how does the pXC50 (Furin [1]) read?
A: The pXC50 was 7.6.

Q: And the inhibition in vivo at 10 mg/kg (Mus musculus [2])?
A: The inhibition in vivo at 10 mg/kg was -11%.

Q: What about the inhibition in vivo at 10 mg/kg (Mus musculus [3]) of the same compound?
A: The inhibition in vivo at 10 mg/kg was 6%.

Q: With `CC(C)(C)[C@H](NC(=O)[C@H](CCCNC(=N)N)NC(=O)Cc1ccc(CN)cc1)C(=O)N[C@@H](CCCNC(=N)N)C(=O)NCc1ccc(C(=N)N)cc1` as the compound, how does the Ki (Furin [7]) read?
A: Its Ki is 0.0224 nM.

Q: With `N=C(N)c1ccc(/N=N/Nc2ccc(C(=N)N)cc2)cc1` [DIMINAZENE] as the compound, how does the Ki (Furin [11]) read?
A: The Ki was 5420 nM.

Q: What does the source list for `CN1CCN(c2ncc(Oc3cc(CN4CCC(CC(=O)O)CC4)cc(-c4cc(Cl)cc(Cl)c4)n3)cn2)CC1`?
A: pXC50 (Furin [1]): 7.8; inhibition in vivo at 10 mg/kg (Mus musculus [2]): 66%; inhibition in vivo at 10 mg/kg (Mus musculus [3]): 46%

Q: With `N=C(N)NCCC[C@@H]1NC(=O)CCCC(=O)NCCCC[C@@H](C(=O)N[C@@H](CCCCN)C(=O)NCc2ccc(C(=N)N)cc2)NC(=O)[C@H](CCCNC(=N)N)NC1=O` (RRKK-{NH(4-amidinobenzyl)}; linker N-3 via Glutaryl) as the compound, how does the Ki (Furin [7]) read?
A: Its Ki is 1.05 nM.

Q: Which Ki (Furin [9]) does the source give for `N=C(N)Nc1ccc(Oc2cccc(Oc3ccc(NC(=N)N)cc3)c2)cc1` here?
A: The Ki was 1500 nM.

Q: And the viability at 2 h, 100 µM [4]?
A: The viability at 2 h, 100 µM was greater than 20%.

Q: What about the viability at 2 h, 100 µM [5] of the same compound?
A: Its viability at 2 h, 100 µM is greater than 20%.

Q: And the inhibition at 100 µM [10]?
A: The inhibition at 100 µM was 90%.

Q: What about the Activity (RAW264.7) of the same compound?
A: Its Activity is 70%.

Q: With `N=C(N)NCCC[C@@H]1NC(=O)CCCC(=O)NCCCC[C@@H](C(=O)N[C@@H](CCCNC(=N)N)C(=O)NCc2ccc(C(=N)N)cc2)NC(=O)[C@H](CCCNC(=N)N)NC1=O` (RRKR-{NH(4-amidinobenzyl)}; linker N-3 via Glutaryl) as the compound, how does the Ki (Furin [7]) read?
A: The Ki was 0.504 nM.
